Paper PMC9143003, “Neutrophil Immunomodulatory Activity of Farnesene, a Component of Artemisia dracunculus Essential Oils” (Pharmaceuticals, 2022)
Where two headings read alike, the source gives them in different places. One block for each compound: values may come before it.

How the values were obtained:
[1] = tested on: human neutrophils; design: method as in PMID 27586050, PMID 25959257; conditions: previous analysis; cited from earlier work
[2] = tested on: human neutrophils; assay: Ca2+ mobilization assay, direct activation of [Ca2+]i; assay type: cell-based; conditions: pure compounds; for EC50: human neutrophils, mean ± SD of three experiments, read-out: Activation of [Ca^2+]i EC50; for Effect on human neutrophil Ca^2+ flux (in words): direct effect
Text: (§1) We obtained human neutrophils using blood collected from healthy donors. Blood collection was approved by the Institutional Review Board at Montana State University (Protocol #MQ041017). Neutrophils were isolated as described previously. The isolated neutrophils were resuspended in HBSS^–. Neutrophil preparations were routinely >95% pure and >98% viable, as determined by light microscopy and trypan blue exclusion, respectively.
(§2) Changes in intracellular Ca^2+ concentrations ([Ca^2+]i) were monitored with a FlexStation 3 (Molecular Devices, Sunnyvale, CA, USA). For these assays, neutrophils were loaded with 1.25 μg/mL Fluo-4AM and incubated in the dark at 37 °C for 30 min. The cells were then washed with HBSS^-. The dye-loaded cells were resuspended in HBSS^+ and pipetted into the wells of black microtiter plates at 2 × 10^5 cells/well. To measure the direct effects of samples on [Ca^2+]i, the test samples were added to the wells (final concentration of DMSO was 1%), and fluorescence was monitored (λex = 485 nm, λem = 538 nm). Changes in fluorescence were monitored every 5 s at room temperature for 240 s. To evaluate the inhibitory effects of the test samples, the samples were added to the wells and incubated for 10 min, with the subsequent addition of 5 nM fMLF, 5 nM WKYMVM, or 25 nM IL-8. Responses were normalized to the response induced by control 5 nM fMLF, 5 nM WKYMVM, or 25 nM IL-8 alone without pretreatment. These responses were assigned as 100%. To calculate median effective concentrations (EC50 or IC50), we used curve fitting (at least five or six points) and nonlinear regression analysis of the dose–response curves. Curve fitting was performed with Prism 9 (GraphPad Software, Inc., San Diego, CA, USA).

[3] = tested on: human neutrophils; assay: Cytotoxicity assay (CellTiter-Glo), neutrophils; conditions: pure compounds, 90 min incubation, no cytotoxicity = IC50 > 55 µM
Procedure: We analyze cytotoxicity in human neutrophils or THP-1 monocytic cells. Cytotoxicity was analyzed using a CellTiter-Glo Luminescent Cell Viability Assay Kit (Promega, Madison, WI, USA). Briefly, the cells were incubated (10^4 cells/well) with the indicated concentrations of essential oil or compound for 90 min (for neutrophils) or 24 h (for THP-1 cells) at 37 °C/5% CO2. After incubation, we added substrate. The samples were analyzed using a Fluoroscan Ascent FL microplate reader.

[4] = tested on: WKYMVM-stimulated human neutrophils (FPR2 agonist WKYMVM); assay: Inhibition of WKYMVM-induced [Ca2+]i; assay type: cell-based; conditions: pure compounds, 10 min pretreatment, 5 nM WKYMVM, read-out: Inhibition of [Ca^2+]i WKYMVM-Induced IC50
Text: as §1, §2

[5] = tested on: fMLF-stimulated human neutrophils (FPR1 agonist fMLF); assay: Inhibition of fMLF-induced [Ca2+]i; assay type: cell-based; conditions: pure compounds, 10 min pretreatment, 5 nM fMLF, read-out: Inhibition of [Ca^2+]i fMLF-Induced IC50
Text: as §1, §2

[6] = tested on: human neutrophils; assay: Chemotaxis assay toward fMLF (ChemoTx chambers); assay type: cell-based; conditions: pure compounds, 30 min pretreatment, 1 nM fMLF; for IC50: read-out: Inhibition of fMLF-induced neutrophil chemotaxis IC50
Text: as §1
To evaluate effects of samples on neutrophil migration, we resuspended neutrophils in HBSS^+ containing 2% (v/v) heat-inactivated FBS (2 × 10^6 cells/mL). We analyzed chemotaxis using 96-well ChemoTx chambers (Neuroprobe, Gaithersburg, MD). The neutrophils were first preincubated with the indicated concentrations of test samples at room temperature for 30 min. The pretreated cells were then pipetted into the chamber upper wells (4 × 10^4 cells/well). The lower wells contained 30 µL of HBSS^+ with 2% (v/v) heat-inactivated FBS, the indicated test samples or control 1% DMSO, and 1 nM fMLF as the chemoattractant. Three lower wells were reserved for background controls (DMSO treated cells in the upper wells and DMSO without fMLF in the lower wells). We allowed the cells to migrate through the polycarbonate membrane filter for 60 min at 37 °C/5% CO2. We determined the number of migrated cells by measuring ATP in lysates of transmigrated cells and comparing this to a standard curve obtained with known neutrophil numbers, as described previously. Calculation of median effective concentrations (IC50) was performed by nonlinear regression analysis of the dose-response curves.

[7] = tested on: human THP-1 monocytic cells; assay: Cytotoxicity assay (CellTiter-Glo), THP-1; assay type: cell-based
Procedure: Human THP-1 monocytic cells obtained from ATCC (Manassas, VA, USA) were cultured in RPMI 1640 medium (Mediatech Inc., Herndon, VA, USA) supplemented with 10% (v/v) FBS, 100 μg/mL streptomycin, and 100 U/mL penicillin. […] After incubation, we added substrate.

[8] = tested on: IL-8-stimulated human neutrophils; assay: Inhibition of IL-8-induced [Ca2+]i; assay type: cell-based; conditions: 10 min pretreatment, 25 nM human IL-8; read-out: Inhibition of IL-8 induced neutrophil [Ca^2+]i IC50
Text: as §1
as §2, with “Responses were normalized to the response induced by control 5 nM fMLF, 5 nM WKYMVM, or 25 nM IL-8 alone without pretreatment. These responses were assigned as 100%. To calculate median effective concentrations (EC50 or IC50), we used curve fitting (at least five or six points) and nonlinear regression analysis of the dose–response curves. Curve fitting was performed with Prism 9 (GraphPad Software, Inc., San Diego, CA, USA).” left out

[9] = tested on: FPR1; design: method as in PMID 16972170, PMID 11211928, PMID 11853704; conditions: cited from earlier work

Compound: C=CC(C)(O)CCC=C(C)C (centres unmarked) [linalool]
Effect on human neutrophil [Ca^2+]i (in words) [1]: no effect

Compound: Cc1ccc(C(C)C)cc1 [p-cymene]
Effect on human neutrophil [Ca^2+]i (in words) [1]: no effect

Compound: C=C1C2CCC(C2)C1(C)C (centres unmarked) [camphene]
Effect on human neutrophil [Ca^2+]i (in words) [1]: no effect

EC50 ([2]; Neutrophil): > 55 µM | IC50 ([4]; Homo sapiens, Neutrophil): > 55 µM | IC50 ([5]; Homo sapiens, Neutrophil): > 55 µM
Compound: CC1(C)[C@H]2CC[C@]1(C)C(=O)C2 [(−)-Camphor]
Effect on human neutrophil Ca^2+ flux (in words) [2]: did not affect human neutrophil Ca^2+ flux | Cytotoxicity [3]: Nontoxic

Compound: CC1=CCC(O)(C(C)C)CC1 (centres unmarked) [terpinen-4-ol]
Effect on human neutrophil [Ca^2+]i (in words) [1]: no effect

EC50 [2]: 50.1 ± 11.5 µM | IC50 [6]: 11.9 ± 1.9 µM | IC50 [4]: 19.1 ± 0.1 µM | IC50 [5]: 42.6 ± 9.7 µM
Compound: (±)-Bornyl acetate
Effect on human neutrophil Ca^2+ flux (in words) [2]: weak activators | Viability of human THP-1 monocytic cells [7]: did not affect the viability

EC50 [2]: 28.5 ± 2.6 µM | IC50 [6]: 3.3 ± 1.4 µM | IC50 [8]: 2.6 µM | IC50 [4]: 1.4 ± 0.5 µM | IC50 [5]: 1.1 ± 0.2 µM
Compound: Farnesene
Effect on human neutrophil Ca^2+ flux (in words) [2]: weak activators | Viability of human THP-1 monocytic cells [7]: did not affect the viability

Compound: CC1=CCC(=C(C)C)CC1 [terpinolene]
Effect on human neutrophil [Ca^2+]i (in words) [1]: no effect

EC50 ([2]; Neutrophil): 53.3 ± 5 µM | Inhibition of fMLF-induced neutrophil chemotaxis IC50 [6]: did not affect this response | IC50 ([4]; Homo sapiens, Neutrophil): 52.7 ± 11.2 µM | IC50 ([5]; Homo sapiens, Neutrophil): 27.2 ± 6.6 µM
Compound: COc1cc(O)c(C(C)=O)c(OC)c1 [Xanthoxylin]
Effect on human neutrophil Ca^2+ flux (in words) [2]: weak activators | Cytotoxicity [3]: Nontoxic | Viability of human THP-1 monocytic cells ([7]; 24 h incubation): did not affect the viability

Compound: Cc1ccc(C(C)(C)O)cc1 [p-cymen-8-ol]
Effect on human neutrophil [Ca^2+]i (in words) [1]: no effect

EC50 ([2]; Neutrophil): > 55 µM | IC50 ([4]; Homo sapiens, Neutrophil): > 55 µM | IC50 ([5]; Homo sapiens, Neutrophil): > 55 µM
Compound: CC1=CC(=O)C(C(C)C)CC1 (centres unmarked) [Piperitone]
Effect on human neutrophil Ca^2+ flux (in words) [2]: did not affect human neutrophil Ca^2+ flux | Cytotoxicity [3]: Nontoxic

Compound: CC1=CCC2CC1C2(C)C (stereo not drawn) [α-pinene]
Effect on human neutrophil [Ca^2+]i (in words) [1]: no effect

Compound: C=CCc1ccc(OC)cc1 [methyl chavicol]
Effect on human neutrophil [Ca^2+]i (in words) [1]: no effect

EC50 ([2]; Neutrophil): > 55 µM | IC50 ([4]; Homo sapiens, Neutrophil): > 55 µM | IC50 ([5]; Homo sapiens, Neutrophil): > 55 µM
Compound: CC12CCC(CC1)C(C)(C)O2 [1,8-Cineole]
Effect on human neutrophil Ca^2+ flux (in words) [2]: did not affect human neutrophil Ca^2+ flux | Cytotoxicity [3]: Nontoxic

Compound: C=CCc1ccc(OC)c(OC)c1 [methyl eugenol]
Effect on human neutrophil [Ca^2+]i (in words) [1]: no effect

EC50 [2]: > 55 µM | IC50 [4]: > 55 µM | IC50 [5]: > 55 µM
Compound: CC12CCC(CC1=O)C2(C)C (stereo not drawn) [(+)-Camphor]
Effect on human neutrophil Ca^2+ flux (in words) [2]: did not affect human neutrophil Ca^2+ flux

Compound: C[C@H](CCC(=O)O)[C@H]1CC[C@H]2[C@@H]3[C@H](O)C[C@@H]4C[C@H](O)CC[C@]4(C)[C@H]3CC[C@]12C [chenodeoxycholic acid]
Concentrations at which FPR1 is antagonized [9]: > 100 µM

Compound: C[C@H](CCC(=O)O)[C@H]1CC[C@H]2[C@@H]3CC[C@@H]4C[C@H](O)CC[C@]4(C)[C@H]3C[C@H](O)[C@]12C [deoxycholic acid]
Concentrations at which FPR1 is antagonized [9]: > 100 µM
